Results from patent US20180022786A1, “NOVEL SODIUM CHANNEL BLOCKING PEPTIDES AND THE USE THEREOF” (priority 2012, published 2018).
Like-named read-outs stand apart in the source and are kept apart here.

Key:
Nav1.7 [1] = target: T1, Nav1.7 (Homo sapiens, UniProt Q15858); assay: cell-based
Target sequence in this assay (Q15858 other isoform, or with tags, fused parts or gaps): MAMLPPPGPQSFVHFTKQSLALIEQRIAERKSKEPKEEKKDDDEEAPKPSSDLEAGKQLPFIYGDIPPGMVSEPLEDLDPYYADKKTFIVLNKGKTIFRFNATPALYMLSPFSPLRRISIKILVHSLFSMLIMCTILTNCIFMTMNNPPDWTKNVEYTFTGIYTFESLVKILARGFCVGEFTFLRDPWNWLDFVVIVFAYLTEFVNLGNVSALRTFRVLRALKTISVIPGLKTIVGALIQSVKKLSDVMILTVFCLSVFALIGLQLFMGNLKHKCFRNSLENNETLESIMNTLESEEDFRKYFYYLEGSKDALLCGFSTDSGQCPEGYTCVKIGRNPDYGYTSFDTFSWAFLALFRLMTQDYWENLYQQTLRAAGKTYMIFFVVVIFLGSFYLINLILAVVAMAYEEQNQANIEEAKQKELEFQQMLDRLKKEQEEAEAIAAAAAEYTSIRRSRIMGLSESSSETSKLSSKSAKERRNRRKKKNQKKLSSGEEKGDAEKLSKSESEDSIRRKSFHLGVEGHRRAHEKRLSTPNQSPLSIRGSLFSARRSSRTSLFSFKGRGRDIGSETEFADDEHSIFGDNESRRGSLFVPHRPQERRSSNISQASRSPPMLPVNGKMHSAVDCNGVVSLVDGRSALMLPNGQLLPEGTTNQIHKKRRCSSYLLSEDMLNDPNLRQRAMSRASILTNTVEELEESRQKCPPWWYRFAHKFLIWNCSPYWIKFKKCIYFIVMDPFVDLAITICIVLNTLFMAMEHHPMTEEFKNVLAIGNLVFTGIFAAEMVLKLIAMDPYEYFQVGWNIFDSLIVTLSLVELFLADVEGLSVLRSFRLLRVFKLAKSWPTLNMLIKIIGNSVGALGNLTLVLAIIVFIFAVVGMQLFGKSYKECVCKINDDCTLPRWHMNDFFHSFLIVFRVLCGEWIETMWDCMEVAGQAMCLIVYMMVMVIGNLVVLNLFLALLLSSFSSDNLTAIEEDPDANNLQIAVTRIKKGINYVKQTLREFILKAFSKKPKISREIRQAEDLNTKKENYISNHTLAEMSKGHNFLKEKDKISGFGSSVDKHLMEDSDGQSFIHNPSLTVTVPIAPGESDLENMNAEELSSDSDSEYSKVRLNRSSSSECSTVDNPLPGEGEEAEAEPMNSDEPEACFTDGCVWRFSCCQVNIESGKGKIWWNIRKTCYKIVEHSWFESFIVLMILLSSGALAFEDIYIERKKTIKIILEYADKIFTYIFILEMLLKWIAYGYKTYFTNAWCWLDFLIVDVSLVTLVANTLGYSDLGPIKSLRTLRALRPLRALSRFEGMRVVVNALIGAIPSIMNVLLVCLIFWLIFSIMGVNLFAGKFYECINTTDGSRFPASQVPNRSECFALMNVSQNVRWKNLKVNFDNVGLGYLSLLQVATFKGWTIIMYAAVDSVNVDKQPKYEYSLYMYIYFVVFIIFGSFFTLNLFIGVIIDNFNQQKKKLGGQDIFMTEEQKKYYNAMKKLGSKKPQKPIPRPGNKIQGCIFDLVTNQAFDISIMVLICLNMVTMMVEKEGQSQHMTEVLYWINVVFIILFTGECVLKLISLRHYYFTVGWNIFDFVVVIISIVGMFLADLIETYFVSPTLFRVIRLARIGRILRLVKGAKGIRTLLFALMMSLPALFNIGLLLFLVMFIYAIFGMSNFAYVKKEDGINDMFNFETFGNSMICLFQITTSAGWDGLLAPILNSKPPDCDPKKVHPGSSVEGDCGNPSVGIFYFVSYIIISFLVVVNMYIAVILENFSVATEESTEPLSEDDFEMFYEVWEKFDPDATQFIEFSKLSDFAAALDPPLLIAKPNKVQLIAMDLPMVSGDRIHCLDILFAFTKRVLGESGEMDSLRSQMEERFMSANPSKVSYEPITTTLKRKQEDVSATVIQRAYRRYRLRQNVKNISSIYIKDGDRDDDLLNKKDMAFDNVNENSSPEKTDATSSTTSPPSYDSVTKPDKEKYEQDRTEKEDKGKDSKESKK

Nav1.2 [2] = target: T2, Nav1.2 (Rattus norvegicus, UniProt P04775); assay: cell-based; conditions: EP (electrophysiology)
Nav1.8 = Nav1.8 (Homo sapiens, UniProt Q9Y5Y9); conditions: read-out: TTX IC50; cited from earlier work
Nav1.3 = Nav1.3 (Homo sapiens, UniProt Q9NY46); conditions: read-out: TTX IC50; cited from earlier work
Nav1.6 = Nav1.6 (Homo sapiens, UniProt Q9UQD0); conditions: read-out: TTX IC50; cited from earlier work
Nav1.1 = Nav1.1 (Homo sapiens, UniProt P35498); conditions: read-out: TTX IC50; cited from earlier work
Nav1.2 [3] = target: Nav1.2 (Homo sapiens, UniProt Q99250); conditions: read-out: TTX IC50; cited from earlier work
Nav1.9 = Nav1.9 (Homo sapiens, UniProt Q9UI33); conditions: read-out: TTX IC50; cited from earlier work
Nav1.2 [4] = target: T2, Nav1.2; conditions: cited from earlier work
Nav1.7 [5] = target: T1, Nav1.7; conditions: Table 2, natural toxins, from WO 2012/004664 A2; cited from earlier work
[6] = FLIPR, read-out: Nav1.7 IC50 FLIPR
[7] = Table 2, natural toxins, from WO 2012/004664 A2

T2 sequence (P04775 whole entry): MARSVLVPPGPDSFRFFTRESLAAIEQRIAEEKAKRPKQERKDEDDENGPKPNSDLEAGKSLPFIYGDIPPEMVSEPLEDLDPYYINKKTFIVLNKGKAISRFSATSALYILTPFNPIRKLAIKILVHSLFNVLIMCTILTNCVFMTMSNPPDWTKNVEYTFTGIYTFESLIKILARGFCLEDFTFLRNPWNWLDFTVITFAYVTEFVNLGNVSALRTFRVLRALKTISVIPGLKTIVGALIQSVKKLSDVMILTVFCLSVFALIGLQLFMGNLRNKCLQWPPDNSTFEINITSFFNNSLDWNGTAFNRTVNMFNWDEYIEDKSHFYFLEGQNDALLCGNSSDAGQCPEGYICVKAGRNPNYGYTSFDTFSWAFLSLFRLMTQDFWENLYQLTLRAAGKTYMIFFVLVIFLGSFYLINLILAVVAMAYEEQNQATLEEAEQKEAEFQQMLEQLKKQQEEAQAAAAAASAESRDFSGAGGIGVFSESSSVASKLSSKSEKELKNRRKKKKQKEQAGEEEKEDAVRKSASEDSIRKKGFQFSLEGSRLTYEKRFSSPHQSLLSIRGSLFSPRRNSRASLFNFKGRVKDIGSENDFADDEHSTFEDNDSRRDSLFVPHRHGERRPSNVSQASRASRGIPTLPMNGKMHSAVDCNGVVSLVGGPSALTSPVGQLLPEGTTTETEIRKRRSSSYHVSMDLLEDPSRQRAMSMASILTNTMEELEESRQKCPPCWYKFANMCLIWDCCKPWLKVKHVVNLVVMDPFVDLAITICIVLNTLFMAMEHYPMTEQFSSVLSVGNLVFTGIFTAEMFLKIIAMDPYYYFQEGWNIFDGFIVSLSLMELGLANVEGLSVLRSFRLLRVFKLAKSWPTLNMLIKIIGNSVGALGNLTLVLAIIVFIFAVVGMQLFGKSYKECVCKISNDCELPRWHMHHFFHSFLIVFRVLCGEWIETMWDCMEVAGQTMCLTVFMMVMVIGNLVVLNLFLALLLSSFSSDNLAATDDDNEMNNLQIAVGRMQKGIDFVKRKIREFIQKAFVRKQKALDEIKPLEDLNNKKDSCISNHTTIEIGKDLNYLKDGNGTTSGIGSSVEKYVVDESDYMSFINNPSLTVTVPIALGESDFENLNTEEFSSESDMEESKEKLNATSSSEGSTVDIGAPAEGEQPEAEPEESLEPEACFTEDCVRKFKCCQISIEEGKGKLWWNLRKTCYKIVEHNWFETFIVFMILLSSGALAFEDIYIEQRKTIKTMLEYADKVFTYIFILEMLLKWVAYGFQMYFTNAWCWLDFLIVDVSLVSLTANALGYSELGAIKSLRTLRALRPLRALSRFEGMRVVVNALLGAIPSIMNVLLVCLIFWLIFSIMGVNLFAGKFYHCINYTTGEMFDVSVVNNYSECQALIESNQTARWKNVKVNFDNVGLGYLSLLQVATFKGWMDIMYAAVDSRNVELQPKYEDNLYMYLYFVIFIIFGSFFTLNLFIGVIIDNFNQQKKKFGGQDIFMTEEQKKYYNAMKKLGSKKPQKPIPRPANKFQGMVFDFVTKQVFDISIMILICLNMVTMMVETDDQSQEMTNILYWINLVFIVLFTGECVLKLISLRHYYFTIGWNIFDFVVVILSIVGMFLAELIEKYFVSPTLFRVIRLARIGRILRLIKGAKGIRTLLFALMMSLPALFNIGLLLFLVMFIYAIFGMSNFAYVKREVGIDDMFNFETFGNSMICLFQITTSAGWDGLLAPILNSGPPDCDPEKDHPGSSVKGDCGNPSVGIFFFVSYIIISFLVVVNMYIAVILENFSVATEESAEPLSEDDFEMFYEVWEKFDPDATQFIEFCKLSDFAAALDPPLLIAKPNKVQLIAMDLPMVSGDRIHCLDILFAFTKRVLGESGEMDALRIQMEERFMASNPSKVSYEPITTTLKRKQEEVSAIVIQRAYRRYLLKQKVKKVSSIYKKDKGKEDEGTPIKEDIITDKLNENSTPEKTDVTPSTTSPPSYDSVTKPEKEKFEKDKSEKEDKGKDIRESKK

CSCC[C@@H]1NC(=O)CNC(=O)[C@H](CCC(=O)O)NC(=O)[C@@H]2CSSC[C@H](NC(=O)[C@@H](N)Cc3ccc(O)cc3)C(=O)N[C@@H](CCC(N)=O)C(=O)N[C@@H](CCCCN)C(=O)N[C@@H](Cc3c[nH]c4ccccc34)C(=O)N[C@@H](CCSC)C(=O)N[C@@H](Cc3c[nH]c4ccccc34)C(=O)N[C@@H]([C@@H](C)O)C(=O)N[C@H]3CSSC[C@H](NC(=O)[C@H](C(C)C)NC1=O)C(=O)N[C@@H](CCCNC(=N)N)C(=O)N[C@@H](CC(C)C)C(=O)N[C@@H](Cc1c[nH]c4ccccc14)C(=O)N[C@H](C(=O)N[C@@H](CCCCN)C(=O)N[C@@H](CCCCN)C(=O)N[C@@H](CCCCN)C(=O)N[C@@H](CC(C)C)C(=O)N[C@H](Cc1c[nH]c4ccccc14)C(=O)NC1CCCCC1)CSSC[C@H](NC(=O)[C@H](CCCCN)NC(=O)[C@H](CCCNC(=N)N)NC(=O)[C@H](CCC(=O)O)NC(=O)[C@H](CO)NC(=O)[C@H](CC(=O)O)NC3=O)C(=O)N2 [Protoxin II (D)-NHcyclohexyl]
IC50 (Nav1.7 [1]; [6]): 31 nM

CSCC[C@@H]1NC(=O)CNC(=O)[C@H](CCC(=O)O)NC(=O)[C@@H]2CSSC[C@H](NC(=O)[C@@H](N)Cc3ccc(O)cc3)C(=O)N[C@@H](CCC(N)=O)C(=O)N[C@@H](CCCCN)C(=O)N[C@@H](Cc3c[nH]c4ccccc34)C(=O)N[C@@H](CCSC)C(=O)N[C@@H](Cc3c[nH]c4ccccc34)C(=O)N[C@@H]([C@@H](C)O)C(=O)N[C@H]3CSSC[C@H](NC(=O)[C@H](C(C)C)NC1=O)C(=O)N[C@@H](CCCNC(=N)N)C(=O)N[C@@H](CC(C)C)C(=O)N[C@@H](Cc1c[nH]c4ccccc14)C(=O)N[C@H](C(=O)N[C@@H](CCCCN)C(=O)N[C@@H](CCCCN)C(=O)N[C@@H](CCCCN)C(=O)N[C@@H](CC(C)C)C(=O)N[C@@H](Cc1c[nH]c4ccccc14)C(=O)N[C@H](Cc1c[nH]c4ccccc14)C(=O)O)CSSC[C@H](NC(=O)[C@H](CCCCN)NC(=O)[C@H](CCCNC(=N)N)NC(=O)[C@H](CCC(=O)O)NC(=O)[C@H](CO)NC(=O)[C@H](CC(=O)O)NC3=O)C(=O)N2 [Protoxin II-D-Trp]
IC50 (Nav1.7 [1]; [6]): 16.5 nM

CNC(=O)[C@H](Cc1c[nH]c2ccccc12)NC(=O)[C@H](CC(C)C)NC(=O)[C@H](CCCCN)NC(=O)[C@H](CCCCN)NC(=O)[C@H](CCCCN)NC(=O)[C@@H]1CSSC[C@@H]2NC(=O)[C@H](CCCCN)NC(=O)[C@H](CCCNC(=N)N)NC(=O)[C@H](CCC(=O)O)NC(=O)[C@H](CO)NC(=O)[C@H](CC(=O)O)NC(=O)[C@@H]3CSSC[C@H](NC(=O)[C@H](C(C)C)NC(=O)[C@H](CCSC)NC(=O)CNC(=O)[C@H](CCC(=O)O)NC(=O)[C@H](CSSC[C@H](NC(=O)[C@@H](N)Cc4ccc(O)cc4)C(=O)N[C@@H](CCC(N)=O)C(=O)N[C@@H](CCCCN)C(=O)N[C@@H](Cc4c[nH]c5ccccc45)C(=O)N[C@@H](CCSC)C(=O)N[C@@H](Cc4c[nH]c5ccccc45)C(=O)N[C@@H]([C@@H](C)O)C(=O)N3)NC2=O)C(=O)N[C@@H](CCCNC(=N)N)C(=O)N[C@@H](CC(C)C)C(=O)N[C@@H](Cc2c[nH]c3ccccc23)C(=O)N1 [Protoxin II-NHMe]
IC50 (Nav1.7 [1]; [6]): 64.3 nM

CSCC[C@@H]1NC(=O)CNC(=O)[C@H](CCC(=O)O)NC(=O)[C@@H]2CSSC[C@H](NC(=O)[C@@H](N)Cc3ccc(O)cc3)C(=O)N[C@@H](CCC(N)=O)C(=O)N[C@@H](CCCCN)C(=O)N[C@@H](Cc3c[nH]c4ccccc34)C(=O)N[C@@H](CCSC)C(=O)N[C@@H](Cc3c[nH]c4ccccc34)C(=O)N[C@@H]([C@@H](C)O)C(=O)N[C@H]3CSSC[C@H](NC(=O)[C@H](C(C)C)NC1=O)C(=O)N[C@@H](CCCNC(=N)N)C(=O)N[C@@H](CC(C)C)C(=O)N[C@@H](Cc1c[nH]c4ccccc14)C(=O)N[C@H](C(=O)N[C@@H](CCCCN)C(=O)N[C@@H](CCCCN)C(=O)N[C@@H](CCCCN)C(=O)N[C@@H](CC(C)C)C(=O)N[C@@H](Cc1c[nH]c4ccccc14)C(=O)Nc1ccccc1)CSSC[C@H](NC(=O)[C@H](CCCCN)NC(=O)[C@H](CCCNC(=N)N)NC(=O)[C@H](CCC(=O)O)NC(=O)[C@H](CO)NC(=O)[C@H](CC(=O)O)NC3=O)C(=O)N2 [Protoxin II-NHanaline]
IC50 (Nav1.7 [1]): 5.1 nM

CSCC[C@@H]1NC(=O)CNC(=O)[C@H](CCC(=O)O)NC(=O)[C@@H]2CSSC[C@H](NC(=O)[C@@H](N)Cc3ccc(O)cc3)C(=O)N[C@@H](CCC(N)=O)C(=O)N[C@@H](CCCCN)C(=O)N[C@@H](Cc3c[nH]c4ccccc34)C(=O)N[C@@H](CCSC)C(=O)N[C@@H](Cc3c[nH]c4ccccc34)C(=O)N[C@@H]([C@@H](C)O)C(=O)N[C@H]3CSSC[C@H](NC(=O)[C@H](C(C)C)NC1=O)C(=O)N[C@@H](CCCNC(=N)N)C(=O)N[C@@H](CC(C)C)C(=O)N[C@@H](Cc1c[nH]c4ccccc14)C(=O)N[C@H](C(=O)N[C@@H](CCCCN)C(=O)N[C@@H](CCCCN)C(=O)N[C@@H](CCCCN)C(=O)N[C@@H](CC(C)C)C(=O)N[C@@H](Cc1c[nH]c4ccccc14)C(=O)NC1CCCCC1)CSSC[C@H](NC(=O)[C@H](CCCCN)NC(=O)[C@H](CCCNC(=N)N)NC(=O)[C@H](CCC(=O)O)NC(=O)[C@H](CO)NC(=O)[C@H](CC(=O)O)NC3=O)C(=O)N2 [Protoxin II-NHcyclohexyl]
IC50 (Nav1.7 [1]; [6]): 22 nM

COC(=O)[C@H](Cc1c[nH]c2ccccc12)NC(=O)[C@H](CC(C)C)NC(=O)[C@H](CCCCN)NC(=O)[C@H](CCCCN)NC(=O)[C@H](CCCCN)NC(=O)[C@@H]1CSSC[C@@H]2NC(=O)[C@H](CCCCN)NC(=O)[C@H](CCCNC(=N)N)NC(=O)[C@H](CCC(=O)O)NC(=O)[C@H](CO)NC(=O)[C@H](CC(=O)O)NC(=O)[C@@H]3CSSC[C@H](NC(=O)[C@H](C(C)C)NC(=O)[C@H](CCSC)NC(=O)CNC(=O)[C@H](CCC(=O)O)NC(=O)[C@H](CSSC[C@H](NC(=O)[C@@H](N)Cc4ccc(O)cc4)C(=O)N[C@@H](CCC(N)=O)C(=O)N[C@@H](CCCCN)C(=O)N[C@@H](Cc4c[nH]c5ccccc45)C(=O)N[C@@H](CCSC)C(=O)N[C@@H](Cc4c[nH]c5ccccc45)C(=O)N[C@@H]([C@@H](C)O)C(=O)N3)NC2=O)C(=O)N[C@@H](CCCNC(=N)N)C(=O)N[C@@H](CC(C)C)C(=O)N[C@@H](Cc2c[nH]c3ccccc23)C(=O)N1 [Protoxin II-OMe]
IC50 (Nav1.7 [1]; [6]): 8.4 nM

CSCC[C@@H]1NC(=O)CNC(=O)[C@H](CCC(=O)O)NC(=O)[C@@H]2CSSC[C@H](NC(=O)[C@@H](N)Cc3ccc(O)cc3)C(=O)N[C@@H](CCC(N)=O)C(=O)N[C@@H](CCCCN)C(=O)N[C@@H](Cc3c[nH]c4ccccc34)C(=O)N[C@@H](CCSC)C(=O)N[C@@H](Cc3c[nH]c4ccccc34)C(=O)N[C@@H]([C@@H](C)O)C(=O)N[C@H]3CSSC[C@H](NC(=O)[C@H](C(C)C)NC1=O)C(=O)N[C@@H](CCCNC(=N)N)C(=O)N[C@@H](CC(C)C)C(=O)N[C@@H](Cc1c[nH]c4ccccc14)C(=O)N[C@H](C(=O)N[C@@H](CCCCN)C(=O)N[C@@H](CCCCN)C(=O)N[C@@H](CCCCN)C(=O)N[C@@H](CC(C)C)C(=O)N[C@@H](Cc1c[nH]c4ccccc14)C(=O)O)CSSC[C@H](NC(=O)[C@H](CCCCN)NC(=O)[C@H](CCCNC(=N)N)NC(=O)[C@H](CCC(=O)O)NC(=O)[C@H](CO)NC(=O)[C@H](CC(=O)O)NC3=O)C(=O)N2 [Protoxin II]
IC50 (Nav1.2 [2]): 100 nM

NC1=N[C@H](O)[C@H]2[C@H]3O[C@]4(O)O[C@@H]([C@@H](O)[C@@]2(N1)[C@@H]4O)[C@]3(O)CO [TTX, tetrodotoxin]
IC50 (Nav1.8): 50 µM | IC50 (Nav1.3): 15 nM | IC50 (Nav1.6): 6 nM | IC50 (Nav1.1): 10 nM | IC50 (Nav1.2 [3]): 10 nM | IC50 (Nav1.9): 1000 nM

YCQKWLWTCDSERKCCEDMVCRLWCKKRL [GsAF I]
IC50 (Nav1.2 [4]; [7]): 255 ± 43 nM | IC50 (Nav1.7 [5]): 249 nM

YCQKWMWTCDEERKCCEGLVCRLWCKKKIEEG [VsTx II]
IC50 (Nav1.2 [4]; [7]): 42400 nM | IC50 (Nav1.7 [5]): 9260 nM

YCQKWMWTCDEERKCCEGLVCRLWCKKKIEW [GsAF II]
IC50 (Nav1.2 [4]; [7]): 410 ± 20 nM | IC50 (Nav1.7 [5]): 70 nM

YCQKWMWTCDEERKCCEGLVCRLWCKRIINM [GsMTx II/PaTX II]
IC50 (Nav1.2 [4]; [7]): 2700 nM | IC50 (Nav1.7 [5]): 260 nM

YCQKWMWTCDSARKCCEGLVCRLWCKKII [PaTx I]
IC50 (Nav1.2 [4]): 5000 nM

YCQKWMWTCDSERKCCEGYVCELWCKYNL [JxTx XII]
IC50 (Nav1.2 [4]): 73900 nM

YCQKWMWTCDSKRACCEGLRCKLWCRKII [JzTx V]
IC50 (Nav1.2 [4]; [7]): 157 ± 20 nM

YCQKWMWTCDSKRKCCEDMVCQLWCKKRL [GrTx I]
IC50 (Nav1.2 [4]; [7]): 2690 nM | IC50 (Nav1.7 [5]): 1010 nM
